Assay results: patent US5965598A, “Zinc-phthalocyanines and corresponding conjugates, their preparation and use in photodynamic therapy and as diagnostic agents” (priority 1997, dated 1999)

Assays:
[1] = system: Branhamella catarrhalis; experiment: Photoinactivation of microorganisms: Branhamella catarrhalis; type: cell-based; details: footnote
Protocol: (§1) The experimental protocol was the following:
(§2) Incubation in dark at 37° C. (5 min to 1 hour).

[2] = system: E. Coli (strain 04); experiment: Photoinactivation of microorganisms: E. coli; type: cell-based, Escherichia coli (strain 04); details: footnote below the P. aeruginosa / E. coli table
Protocol: as §1, §2

[3] = system: Staphylococcus aureus (ATCC 6538P); experiment: Photoinactivation of microorganisms: Staphylococcus aureus; type: cell-based; details: 1 μM; 15 mW/cm2, 30 min
Protocol: as §1, §2

With `[Zn+2].c1ccc2c(c1)-c1nc-2nc2[n-]c(nc3nc([n-]c4nc(n1)-c1ccccc1-4)-c1ccccc1-3)c1ccccc21` [ZnPC, ZnPhthalocyanine] the “Photoinactivation activity (in words)” value [1] was “not active”, the “Photoinactivation activity (in words)” value [2] was “not active” and the Cell mortality [3] was 99.99.
